These results are taken from patent US9126952B2, “Morpholinylquinazolines” (Merck Patent GmbH, priority 2010, dated 2015).

Assay [1] relates to kinases of the PI3K isoenzyme family. As to conditions: cited from earlier work.
For the next assay, the system named is mammal cells. As to conditions: Rosenzweig et al. (1999); cited from earlier work.
Assay [2] addresses T1, DNA-PK (Homo sapiens (Human), UniProt P78527). As to conditions: ATP-competitive; Hardcastle et al. (2005); cited from earlier work.
The target of assay [3] is T1, DNA-PK. The experiment in a line: DNA-PK/biochemical assay (FlashPlate kinase assay). As to conditions: 5 μM ATP, 90 min, room temperature; read-out: Binding DNA-PK IC50. On the procedure:
[…] To this end, 1.5 μg of the DNA-PK/protein complex and 100 ng of biotinylated substrate, such as, for example, PESQEAFADLWKK biotin-NH2 (“biotin-DNA-PK peptide”), in a total volume of 36.5 μl (34.25 mM HEPES/KOH, 7.85 mM Tris-HCl, 68.5 mM KCl, 5 μM ATP, 6.85 mM MgCl2, 0.5 mM EDTA, 0.14 mM EGTA, 0.69 mM DTT, pH 7.4), were incubated at room temperature for 90 min with 500 ng of DNA from calf thymus, 0.1 μCi of 33P-ATP and 1.8% of DMSO per well with or without the test compound. The reaction was stopped using 50 μl/well of 200 mM EDTA. After incubation for a further 30 min at room temperature, the liquid was removed. Each well was washed three times with 100 μl of 0.9% sodium chloride solution. A non-specific reaction (blank value) was determined using 10 μM of a proprietary kinase inhibitor. The radioactivity measurement was carried out by means of a TopCount. IC50 values were calculated in RS1. • Literature: Kashishian et al. (2003) Molecular Cancer Therapeutics 1257.

Like-named read-outs stand apart in the source and are kept apart here.

Take `CCN1CCN(CC(=O)Nc2ccc(-c3cccc4c(=O)cc(N5CCOCC5)oc34)c3sc4ccccc4c23)CC1` [KU-0060648]: the “inhibition of PI3K isoenzyme family kinases” value in assay [1] is on record as “potently inhibited”. In the case of `O=c1cc(N2CCOCC2)oc2c(-c3ccccc3)cccc12` [LY294002], the “increase in sensitivity to ionising irradiation in cellular terms” value with mammal cells is reported as “only a weak increase in sensitivity to ionising irradiation”. On to `O=c1cc(N2CCOCC2)oc2c(-c3cccc4c3sc3ccccc34)cccc12` [NU-7441], for which, at DNA-PK [2], the IC50 (in general, the point on the concentration scale where inhibition reaches its midpoint) is 20 nM. On to `O=C(NC1CCCN(c2nc(Cl)nc3cc(N4CCOCC4)ccc23)C1)c1cccs1` (stereo not drawn) [compound 64, N-[1-(2-Chloro-7-morpholin-4-yl-quinazolin-4-yl)-piperidin-3-yl]-thiophene-2-carboxamide], for which the IC50 at DNA-PK [3] was 100 to 500 nM.

On to `O[C@@H](c1nccs1)C1CCCN(c2ncnc3cc(N4CCOCC4)ccc23)C1` (stereo partly drawn) [compound 65, (R)-[1-(7-Morpholin-4-ylquinazolin-4-yl)-piperidin-3-yl]-thiazol-2-yl-methanol], for which the IC50 on DNA-PK [3] was under 100 nM. `O[C@H](c1nccs1)C1CCCN(c2ncnc3cc(N4CCOCC4)ccc23)C1` (stereo partly drawn) [compound 66]: the IC50 on DNA-PK [3] was under 100 nM.
